Assays:
[1] = system: murine tk(-) 3T3 HSV1-TK expressing clones; assay: Cytotoxicity assay, TK expressing clones; format: cell-based; settings: for IC50: Mus musculus, Table 2, HSV1-TK clones, mean of 3 experiments; for Selectivity Index: IC50 ratio of parental to HSV1-TK clones
Protocol: (§1) Cells were seeded at 2.5x10^3 per wells in 24-wells plates. 24 h later they were grown in drug-containing medium for 7 days. Drug concentrations ranging from 0.001 nM to 100 µM were tested in triplicate. The medium was changed with fresh DMEM every 2 days. On day 6, 1.5 µCi of [methyl-^3H]thymidine (Amersham, UK) was added per well. After washes with phosphate-buffered saline (PBS pH 7.3), incorporated radioactivity was determined with a Micro-Beta Plus counter (EG&G Instruments and Wallac, Turku, Finland).
(§2) Drug sensitivity of TK expressing clones were tested as described in Table 1.

[2] = system: HSV1-TK expressing tk(-) 3T3 cells (bulk); assay: Cytotoxicity assay, bulk transfected tk(-) 3T3 cells; format: cell-based, murine; settings: for IC50: Mus musculus, NIH3T3, 168 h; for Selectivity Index: IC50 ratio of parental to HSV1-TK transfected cells (bulk)
Protocol: (§3) Cells were transfected by the various plasmids using a calcium phosphate precipitation kit (GibcoBRL). After 48 h of phenotypic expression, cells were grown in selective medium with zeocin (Cayla, Toulouse, France): 25 µg/ml (3T3 cells), 50 µg/ml (143 B cells) or 100 µg/ml (PANC-O2 and HCT 116 cells).
as §1
(§4) Drug toxicity was assessed by measuring inhibition of cell proliferation. Cells were grown in drug-containing medium for 7 days. [methyl-^3H]-thymidine was added at day 6 and incorporated radioactivity was measured.

[3] = system: EBV-TK expressing tk(-) 3T3 cells (bulk); assay: as above; format: cell-based, murine; settings: for IC50: Mus musculus, NIH3T3, 168 h; for Selectivity Index: IC50 ratio of parental to EBV-TK transfected cells (bulk)
Protocol: as §3, §1, §4

NIH-3T3 = assay: Cytotoxicity assay (inhibition of [methyl-3H]thymidine incorporation), parental cells; format: cell-based, murine; settings: Mus musculus, parental NIH-3T3
Protocol: as §1, §4

[4] = system: human tk(-) 143B cells transfected with HSV1- or EHV4-TK; assay: Cytotoxic activity on human cell bulks, EHV4-TK compared with HSV1-TK (Figure 3); format: cell-based; settings: human tk(-) 143B cell bulks
Protocol: Toxicity is presented as mean of IC50 values ± SD. The means, determined on 3 independent experiments, are indicated on the top of each histogram.
as §1
Human tk(-) osteosarcoma 143B cell bulks expressing HSV1- or EHV4-TK were thus generated. We first analyzed the herpesvirus-TK protein expression levels for each cell bulks by […] using polyclonal antibodies against Sh protein (Figure 2-B). There was no detectable band corresponding to fused protein in tk(-) 143B cell extracts.

[5] = system: murine tk(-) 3T3 EHV4-TK expressing clones; assay: Cytotoxicity assay, TK expressing clones; format: cell-based; settings: for Selectivity Index: IC50 ratio of parental to EHV4-TK clones; for IC50: Mus musculus
Protocol: as §1, §2

[6] = system: VZV-TK expressing tk(-) 3T3 cells (bulk); assay: Cytotoxicity assay, bulk transfected tk(-) 3T3 cells; format: cell-based, murine; settings: for Selectivity Index: IC50 ratio of parental to VZV-TK transfected cells (bulk); for IC50: Mus musculus, NIH3T3, 168 h
Protocol: (§5) Cells were transfected by the various plasmids using a calcium phosphate precipitation kit (GibcoBRL).
as §1, §4

[7] = system: EHV4-TK expressing tk(-) 3T3 cells (bulk); assay: as above; format: cell-based, murine; settings: for Selectivity Index: IC50 ratio of parental to EHV4-TK transfected cells (bulk); for IC50: Mus musculus, NIH3T3, 168 h
Protocol: as §5, §1, §4

[8] = system: EHV4-TK expressing HCT116 cells; assay: Cytotoxicity assay, colonic carcinoma cells; format: cell-based, human
Protocol: as §1

[9] = system: HSV1-TK expressing HCT116 cells; assay: Cytotoxicity assay, colonic carcinoma cells; format: cell-based, human
Protocol: as §1

HCT116 cells = assay: Cytotoxicity assay, colonic carcinoma cells, parental; format: cell-based; settings: Homo sapiens, HCT-116, mean
Protocol: as §1

[10] = system: EHV4-TK expressing PANC-O2 cell bulk; assay: Cytotoxicity assay, pancreatic tumor cell bulk; format: cell-based, murine
Protocol: as §1

[11] = system: HSV1-TK expressing PANC-O2 cell bulk; assay: Cytotoxicity assay, pancreatic tumor cell bulk; format: cell-based, murine; settings: Mus musculus, means of two independent experiments
Protocol: as §1

[12] = 10 mg/kg twice a day, humans (refs 34, 35); cited from earlier work
[13] = system: tk(-) 3T3 cells expressing EHV4-TK/E-GFP fusion protein; assay: GCV toxicity, viability assay (Figure 5-B); format: cell-based, murine; settings: Mus musculus, NIH3T3
Protocol: (§6) (A) E-GFP expression in tk(-) 3T3 transfected and non-transfected cells. EHV4-TK gene fused with E-GFP gene (Figure 1-B) was transfected in tk(-) 3T3 cells, and E-GFP positive cells were detected by FACS analysis. Expression of E-GFP was determined a week after transfection (1) and after 2 months of culture in HAT medium (2). (B) GCV toxicity in transfected and non-transfected cells. Results were expressed as % of viable cells compared to cells grown without GCV.
(§7) Parental and viral-TK expressing cells were plated at 5x10^3 per wells in 6-wells dishes. After 24 h, drugs was added to the medium at various concentrations ranging from 0.01 to 100 µM. Medium containing drugs was changed every 2 days. After 7 days of culture, cell viability was assayed by counting viable cells by trypan blue exclusion after 7 days of culture with GCV.
(§8) To facilitate the transgene detection in transfected cells or tissues, the E-GFP gene was fused in frame at the 3' end of the EHV4-TK gene and cloned into an expression vector (Figure 1-B). This construction was then transfected into tk(-) 3T3 cells, followed by FACS analysis of E-GFP positive cells. A cell bulk containing 95% of E-GFP expressing cells was obtained. […] Expression of the EHV4-TK/E-GFP fusion protein efficiently sensitized these cells to GCV for which the IC50 was 0.6 µM, compared to 30 µM for tk(-) 3T3 cells (Figure 5-B).

tk(-) 3T3 cells = assay: GCV toxicity, viability assay (Figure 5-B), non-transfected cells; format: cell-based, murine; settings: Mus musculus, NIH3T3; non-transfected tk(-) 3T3; % viable cells
Protocol: as §6, §7, §8

[14] = NIH3T3, 168 h, Table 1, 7 days drug, mean of 2 experiments
[15] = NIH3T3, Table 2, mean of 3 experiments

SMILES | IC50 [1] [nM] | IC50 [2] [nM] | IC50 [3] [nM] | IC50 (NIH-3T3; [14]) [nM] | IC50 (NIH-3T3; [15]) [nM] | toxicity / sensitivity in EHV4-TK compared with HSV1-TK expressing cells [4] | Selectivity Index [5] | IC50 [5] [nM] | Selectivity Index [1] | Selectivity Index [2] | Selectivity Index [3] | Selectivity Index [6] | IC50 [6] [nM] | Selectivity Index [7] | IC50 [7] [nM] | also measured
Nc1nc2c(ncn2COCCO)c(=O)[nH]1 [ACV, 9-(2-hydroxyethoxymethyl)guanine] | 15000 | 8700 | 43300 | 165000 | 53300 |  |  |  |  |  |  |  |  |  |  | 
O=c1[nH]c(=O)n([C@H]2C[C@H](O)[C@@H](CO)O2)cc1/C=C/Br [BVDU, (E)-5-(2-bromovinyl)-2'-deoxyuridine] | 13 | 15 | 40 | 55000 | 43300 | greater in HSV1-TK than in EHV4-TK expressing cells | 1237 | 35 | 3331 | 5500 | 1375 | 2750 | 16 | 2750 | 20 | 
Nc1nc2c(ncn2COC(CO)CO)c(=O)[nH]1 [GCV, 9-(1,3-dihydroxy-2-propoxymethyl)guanine] | 160 | 200 | 6000 | 70000 | 36700 | approximately twelve fold more sensitive | 612 | 60 | 230 | 350 | 12 | 9 | 8000 | 700 | 100 | fold more sensitive than HCT116 cells ([8]; EHV4-TK expressing vs parental HCT116): 485 fold; IC50 fold lower for EHV4-TK than for HSV1-TK expressing cells ([8]; HCT116): 3 fold; IC50 ([8]; Homo sapiens, HCT-116, EHV4-TK HCT116, means ± SD for 3 independent experiments): 110 ± 20 nM; fold more sensitive than HCT116 cells ([9]; HSV1-TK expressing vs parental HCT116): 170 fold; IC50 ([9]; Homo sapiens, HCT-116, HSV1-TK HCT116, means ± SD for 3 independent experiments): 320 ± 80 nM; IC50 (HCT116 cells): 53400 ± 15000 nM; IC50 ([10]; Mus musculus): 550 ± 70 nM; IC50 fold lower for EHV4-TK than for HSV1-TK expressing cell bulk ([10]; PANC-O2): 3 fold; IC50 [11]: 1700 ± 500 nM; cerebral spinal fluid (CSF) concentrations, fold lower than plasmatic [12]: approximately 3 fold; IC50 [13]: 600 nM; IC50 (tk(-) 3T3 cells): 30000 nM

Source: patent EP1046400B1, “Use of an Equine herpes virus type-4 thymidine kinase and a nucleoside analog selected from ganciclovir and acyclovir for the killing of human proliferative cells” (Université Pierre et Marie Curie (Paris VI), priority 1999, dated 2000)
